From patent publication US12286423B2, “Antiviral 1,3-di-oxo-indene compounds” (Novartis AG, priority 2020, dated 2025)

How the values were obtained:
Format in all cases: cell-based
C15_C3 REPLICON = assay: C15_C3 replicon assay
HRV A29 = HRV A29 CPE inhibition assay; details: Human rhinovirus sp.; HRV A29, cytopathic effect inhibition
Description: (§1) Bioactivity of the Compounds of the Invention was Determined Using the Following Methods. Determination of Drug Efficacy Against Picornaviruses Using Cytopathic Effect (CPE) Inhibition Assay
(§2) In the assay, HeLa (human cervical cancer cells), MRC-5 (human fetal lung fibroblast cells), and RD cells (derived from human rhabdomyosarcoma) were employed. For comparison, ribavirin (Riv), Pleconaril (pleco), and […] (BTA) were used as controls. Reagents were dissolved at a concentration of 10-40 mg/ml in 100% dimethyl sulfoxide (DMSO). Water-soluble reagents were dissolved in PBS (−) solution and stored at −20° C. On the day of the experiment, they were used in 3 fold to 5 fold concentrations in such a manner that the concentration of dimethyl sulfoxide in each well was between 0.5% and 1%.
(§3) Pharmaceutical efficacy was determined using a virus-induced cytopathic effect (CPE) inhibition assay. In this regard, after cells suitable for viruses were grown in 96-well plates, dilutions of viruses in DME supplemented with 2% FBS (DME/2% FBS) or MEM supplemented with 2% FBS (MEM/2% FBS) were inoculated in an amount of […] with a concentration corresponding to 100 CCID50 (50% cell culture infective dose) into each well of the plates, and incubated for 30 min-1 hr at 33° C. or 37° C. to allow the viruses to adsorb onto the cells. The culture medium was removed before aliquots of drug dilutions with various concentrations were added in an amount of 100 μl to each well. While HRV (human rhinovirus) was grown at 33° C., the other viruses were incubated in a 37° C. CO2 incubator for 2-3 days. Alternatively, the cells were cultured for 2-3 days without removal of the medium after they were added with 50 μl of each drug dilution having a 2-fold higher concentration and then with 50 μl of the virus dilution. Viruses were incubated in host HeLa cells at 37° C. for 2-3 days in DME/2% or MEM/2% FBS.
(§4) For HeLa cells, the drugs were measured for EC50 (50% maximal effective concentration), which is the concentration of a drug inducing a response halfway between the baseline and maximum, using an MTT assay. With regard to RD and MRC-5 cells, CPE was determined using FDA (Fluorescein diacetate) or MTT. In order to determine the effect of drug toxicity on efficacy results, at the time of inoculation with the virus, mock-infection was also included. A virus-free medium was added to a cell culture, which was then subjected to the same treatment as the mock-infected cells inoculated with the virus. That is, the medium was removed after one hour of incubation, and dilutions of drugs in the medium were added once more. Following incubation for 2-3 days, the cells were observed under a microscope and the drugs were determined for CC50 (50% cytotoxic concentration) at which 50% of the cells were killed, using an MTT assay in which counts of viable cells in mock-infected wells containing drugs were compared to those of viable cells in control wells containing no drugs. In an FDA hydrolysis assay, FDA was added to each well after removal of the medium, and incubated for 20-30 min before fluorescence intensity was measured using a spectrofluorometer to determine CPE in the same manner as in MTT.
(§5) In addition, antiviral effects can be calculated using Mathematical Formula 2 below: Antiviral Effect=[A(Drug/Virus)−A(Virus Control)/A(Cell control)−A(Virus Control)]
(§6) If the survival rate is 100%, its antiviral effect is 100% whereas if the survival rate is 0%, its antiviral effect is none. […]
(§7) Specifically, cells grown to confluence in 96-well plates were infected with 100 50% cell culture infected doses (CCID50) of virus. After an adsorption period of 2 hrs at 37° C., the virus was removed and serial dilutions of the compounds were added. […] After removal of the medium, 90 μl of a culture medium and 10 μl of MTS-phenazine methosulfate (Promega, Leiden, The Netherlands) were added to each well. […]

HRV A1B = HRV A1B CPE inhibition assay; details: Human rhinovirus sp., cytopathic effect inhibition, read-out: HRV A1B_CPE (EC50 μM)
Description: as §1, §2, §3, §4, §5, §6, §7

HRV A16 = HRV A16 CPE inhibition assay; details: Human rhinovirus sp.; HRV A16, cytopathic effect inhibition
Description: as §1, §2, §3, §4, §5, §6, §7

[1] = Cytotoxicity (CC50) in mock-infected cells, MTT assay; details: human, HeLa cells (mock-infected), 50% cytotoxic concentration, read-out: CYTOTOX (CC50 μM)
Description: as §4
That is, the survival rate (% survival) of mock-infected cells for cytotoxicity measurement was calculated using the Mathematical Formula 1 below: Cell Drug=Survival by [A(Drug)−A(Background solution)/A(Cell control)−A(Background×100% Solution)]
While 100% cell survival means no cytotoxicity of the drug, the highest cytotoxicity is reflected by 0% cell survival. The 50% cytotoxic concentration was defined as the concentration required to reduce the cell number by 50%. This concentration of the drug is represented as CC50. Higher values mean lower cytotoxicity. […]
In Mathematical Formulae 3 and 4 above, • OD (CC) represents the OD of the background cell culture that is neither induced by a virus nor treated by chemical, • OD (VC) represents the OD of the control cell culture that is induced by a virus but not treated by chemical, • OD (Virus+Compound) represents the OD of the cell culture infected by a virus that has been treated with a concentrated compound, • OD (Compound) represents the OD of the cell culture that has been treated with a concentrated compound only, and • OD (Blank) represents the OD of the well to which only the cell culture has been added.
The effective concentration (EC50) represents the concentration of a drug at which 50% of cells are allowed to survive by CPE of an induced virus, and the cytotoxicity concentration (CC50) represents the concentration of a drug at which a compound has killed 50% of cells, and they were calculated by the logarithmic interpolation.

HRV B14 = HRV B14 CPE inhibition assay; details: Human rhinovirus sp.; HRV B14, cytopathic effect inhibition
Description: as §1, §2, §3, §4, §5, §6, §7

SMILES	EC50 (C15_C3 REPLICON)	EC50 (HRV A29)	EC50 (HRV A1B)	EC50 (HRV A16)	CC50 [1]	EC50 (HRV B14)
C[C@@H](c1ccc2c(c1)O[C@]1(O)c3cccc(N)c3C(=O)[C@]21NC(=O)c1cccc(O)n1)C1CC1 [Example 8, N-((4bR,9bR)-1-amino-7-((R)-1-cyclopropylethyl)-4b-hydroxy-10-oxo-4b,10-dihydro-9bH-indeno[1,2-b]benzofuran-9b-yl)-6-hydroxypicolinamide]	5.33 µM	0.035 µM	0.031 µM	0.068 µM	35 µM	0.016 µM
Cc1cc(S(=O)(=O)N2CCN(C)CC2)[nH]c1C(=O)NC12C(=O)c3c(N)cccc3C1(O)Oc1cc([C@H]3C[C@H]3C)ccc12 (stereo partly drawn) [Example 24, N-(1-amino-4b-hydroxy-7-((1S,2R)-2-methylcyclopropyl)-10-oxo-4b,10-dihydro-9bH-indeno[1,2-b]benzofuran-9b-yl)-3-methyl-5-((4-methylpiperazin-1-yl)sulfonyl)-1H-pyrrole-2-carboxamide]	0.34 µM	0.037 µM	0.016 µM	0.039 µM	28.4 µM	0.016 µM
Cc1cc(S(=O)(=O)N2CCN(C)CC2)[nH]c1C(=O)N[C@]12C(=O)c3c(N)cccc3[C@@]1(O)Oc1cc([C@H]3C[C@@H]3C)ccc12 [Example 14, N-((4bR,9bR)-1-amino-4b-hydroxy-7-((1S,2S)-2-methylcyclopropyl)-10-oxo-4b,10-dihydro-9bH-indeno[1,2-b]benzofuran-9b-yl)-3-methyl-5-((4-methylpiperazin-1-yl)sulfonyl)-1H-pyrrole-2-carboxamide]	0.516 µM	0.03 µM	0.016 µM	0.023 µM	21.9 µM	0.016 µM
Cc1cc(S(C)(=O)=O)[nH]c1C(=O)NC12C(=O)c3c(N)cccc3C1(O)Oc1cc(C3C[C@H]3C)ccc12 (stereo in doubt) [Example 21, N-(1-amino-4b-hydroxy-7-((1S,2R)-2-methylcyclopropyl)-10-oxo-4b,10-dihydro-9bH-indeno[1,2-b]benzofuran-9b-yl)-3-methyl-5-(methylsulfonyl)-1H-pyrrole-2-carboxamide]	2.91 µM	0.074 µM	0.07 µM	0.026 µM	37.3 µM	0.016 µM
Cc1c(C(=O)N[C@]23C(=O)c4c(N)cccc4[C@@]2(O)Oc2cc([C@@H](C)C4CC4)ccc23)[nH]c(=O)n1C [Example 18, N-((4bR,9bR)-1-amino-7-((S)-1-cyclopropylethyl)-4b-hydroxy-10-oxo-4b,10-dihydro-9bH-indeno[1,2-b]benzofuran-9b-yl)-1,5-dimethyl-2-oxo-2,3-dihydro-1H-imidazole-4-carboxamide]	1.65 µM	0.016 µM	0.018 µM	0.05 µM	31.8 µM	
Cc1c(S(C)(=O)=O)c[nH]c1C(=O)NC12C(=O)c3c(N)cccc3C1(O)Oc1cc([C@H]3C[C@H]3C)ccc12 (stereo partly drawn) [Example 27, N-(1-amino-4b-hydroxy-7-((1S,2R)-2-methylcyclopropyl)-10-oxo-4b,10-dihydro-9bH-indeno[1,2-b]benzofuran-9b-yl)-3-methyl-4-(methylsulfonyl)-1H-pyrrole-2-carboxamide]	0.705 µM	0.079 µM	0.02 µM	0.084 µM	40.4 µM	0.016 µM
C[C@H](c1ccc2c(c1)O[C@]1(O)c3cccc(N)c3C(=O)[C@]21NC(=O)CN1CCC1)C1CC1 [Example 5, N-((4bR,9bR)-1-amino-7-((S)-1-cyclopropylethyl)-4b-hydroxy-10-oxo-4b,10-dihydro-9bH-indeno[1,2-b]benzofuran-9b-yl)-2-(azetidin-1-yl)acetamide]	1.35 µM	0.039 µM	0.036 µM	0.072 µM	19.2 µM	0.016 µM
Cc1cc(S(C)(=O)=O)[nH]c1C(=O)NC12C(=O)c3c(N)cccc3C1(O)Oc1cc([C@@H]3C[C@@H]3C)ccc12 (stereo partly drawn) [Example 26, N-(1-amino-4b-hydroxy-7-((1R,2S)-2-methylcyclopropyl)-10-oxo-4b,10-dihydro-9bH-indeno[1,2-b]benzofuran-9b-yl)-3-methyl-5-(methylsulfonyl)-1H-pyrrole-2-carboxamide]	8.37 µM	0.274 µM	0.17 µM	0.093 µM	37.1 µM	0.016 µM
Cc1c(S(C)(=O)=O)c[nH]c1C(=O)N[C@]12C(=O)c3c(N)cccc3[C@@]1(O)Oc1cc([C@H]3C[C@@H]3C)ccc12 [Example 28, N-((4bR,9bR)-1-amino-4b-hydroxy-7-((1S,2S)-2-methylcyclopropyl)-10-oxo-4b,10-dihydro-9bH-indeno[1,2-b]benzofuran-9b-yl)-3-methyl-4-(methylsulfonyl)-1H-pyrrole-2-carboxamide]	1.85 µM	0.045 µM	0.037 µM	0.16 µM	19.8 µM	0.016 µM
C[C@H](c1ccc2c(c1)O[C@]1(O)c3cccc(N)c3C(=O)[C@]21NC(=O)c1cccc(O)n1)C1CC1 [Example 3, N-((4bR,9bR)-1-amino-7-((S)-1-cyclopropylethyl)-4b-hydroxy-10-oxo-4b,10-dihydro-9bH-indeno[1,2-b]benzofuran-9b-yl)-6-hydroxypicolinamide]	4.81 µM	0.02 µM	0.033 µM	0.057 µM	32.3 µM	0.016 µM
C[C@@H](c1ccc2c(c1)O[C@]1(O)c3cccc(N)c3C(=O)[C@]21NC(=O)CN1CCC1)C1CC1 [Example 17, N-((4bR,9bR)-1-amino-7-((R)-1-cyclopropylethyl)-4b-hydroxy-10-oxo-4b,10-dihydro-9bH-indeno[1,2-b]benzofuran-9b-yl)-2-(azetidin-1-yl)acetamide]	1.36 µM	0.018 µM	0.016 µM	0.07 µM	24.5 µM	0.016 µM
Cc1cc(S(=O)(=O)N2CCN(C)CC2)[nH]c1C(=O)N[C@]12C(=O)c3c(N)cccc3[C@@]1(O)Oc1cc(OC(C)C)ccc12 (single isomer, unassigned) [Example 19]	0.876 µM	0.046 µM	0.016 µM	0.022 µM	48.3 µM	
